Experimental data taken from patent publication US7662810B2, “2-arylmethylazetidine carbapenem derivatives and preparation thereof” (Korea Research Institute of Chemical Technology, priority 2004, dated 2010).

Columns and labels:
[1] = target: T1, Dihydropeptidase-1 (DHP-1) (Sus scrofa, UniProt P22412)
T1 sequence (P22412 17-384): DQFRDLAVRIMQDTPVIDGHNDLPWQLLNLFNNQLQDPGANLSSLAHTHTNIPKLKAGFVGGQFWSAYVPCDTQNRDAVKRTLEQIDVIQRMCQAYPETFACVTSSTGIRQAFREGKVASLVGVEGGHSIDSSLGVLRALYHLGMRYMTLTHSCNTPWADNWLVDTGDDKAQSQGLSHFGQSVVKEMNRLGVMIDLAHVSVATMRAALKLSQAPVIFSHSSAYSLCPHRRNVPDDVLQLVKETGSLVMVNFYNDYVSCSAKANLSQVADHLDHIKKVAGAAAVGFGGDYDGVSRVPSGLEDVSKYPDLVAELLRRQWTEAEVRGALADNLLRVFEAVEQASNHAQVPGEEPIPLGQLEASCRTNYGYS

[2] = system: Salmonella typhimurium 179; assay: Measurement of Minimum Inhibitory Concentration (MIC); type: cell-based; settings: Salmonella typhimurium 179
Description: (§1) The antibacterial activities of the compounds of the present invention prepared in the above Examples against Gram-positive and Gram-negative bacteria, MRSA and QRS were tested as follows.
(§2) Respective bacterial strains were inoculated into 3 ml of Fleisch extract broth (beef extract 1%, peptone 1%, NaCl 0.3%, Na2HPO4.12H2O 0.2%, pH 7.4-7.5. 10% horse serum was supplemented for Streptococcus pyogenes and S. facium) and cultured on a shaking incubator at 37° C. for 18 hours. About 10^4 CFU/spot of the cultured bacterial strains were inoculated onto Müller-Hinton agar plates containing serial double dilutions (final concentration of 0.002 to 100 μg/ml) of a test compound employing an automatic inoculator (Dynatech, USA), and incubated at 37° C. for 18 hours. When the incubation was completed, the minimum inhibitory concentration was determined. Meropenem (Yuhan corporation, Korea) and vancomycin (Cj Inco., Korea) were used as standard antibiotics, respectively.

[3] = system: Escherichia coli 1507 E; assay: as above; type: cell-based
Description: as §1, §2

[4] = system: Escherichia coli TEM; assay: as above; type: cell-based; settings: Escherichia coli TEM
Description: as §1, §2

[5] = system: Klebsiella aerogenes 1522 E; assay: as above; type: cell-based
Description: as §1, §2

[6] = system: Enterobacter cloacae 1321 E; assay: as above; type: cell-based
Description: as §1, §2

[7] = system: Staphylococcus aureus 503; assay: as above; type: cell-based
Description: as §1, §2

[8] = system: Staphylococcus pyogenes 308A; assay: as above; type: cell-based; settings: Staphylococcus pyogenes 308A
Description: as §1, §2

[9] = system: Escherichia coli DC 2; assay: as above; type: cell-based
Description: as §1, §2

[10] = system: Staphylococcus aureus 285; assay: as above; type: cell-based
Description: as §1, §2

[11] = system: Staphylococcus pyogenes 77A; assay: as above; type: cell-based; settings: Staphylococcus pyogenes 77A
Description: as §1, §2

[12] = system: Klebsiella oxytoca 1082 E; assay: as above; type: cell-based
Description: as §1, §2

[13] = system: Escherichia coli DC 0; assay: as above; type: cell-based
Description: as §1, §2

[14] = system: Enterobacter cloacae P 99; assay: as above; type: cell-based
Description: as §1, §2

[15] = system: Staphylococcus faecium MD 8b; assay: as above; type: cell-based; settings: Staphylococcus faecium MD 8b
Description: as §1, §2

[16] = system: Escherichia coli 078; assay: as above; type: cell-based
Description: as §1, §2

[17] = system: Staphylococcus aureus 694E; assay: Measurement of Minimum Inhibitory Concentration (MIC), MRSA; type: cell-based; settings: Staphylococcus aureus 694E
Description: as §1, §2

[18] = system: Staphylococcus aureus 121E; assay: as above; type: cell-based; settings: Staphylococcus aureus 121E
Description: as §1, §2

[19] = system: Staphylococcus aureus 697E; assay: as above; type: cell-based; settings: Staphylococcus aureus 697E
Description: as §1, §2

[20] = system: Staphylococcus aureus 88E; assay: as above; type: cell-based; settings: Staphylococcus aureus 88E
Description: as §1, §2

[21] = system: Staphylococcus aureus 208E; assay: as above; type: cell-based; settings: Staphylococcus aureus 208E
Description: as §1, §2

[22] = system: Staphylococcus aureus 690E; assay: as above; type: cell-based; settings: Staphylococcus aureus 690E
Description: as §1, §2

[23] = system: Staphylococcus aureus 692E; assay: as above; type: cell-based; settings: Staphylococcus aureus 692E
Description: as §1, §2

[24] = system: Staphylococcus aureus 693E; assay: as above; type: cell-based; settings: Staphylococcus aureus 693E
Description: as §1, §2

[25] = system: Staphylococcus aureus 256E; assay: as above; type: cell-based; settings: Staphylococcus aureus 256E
Description: as §1, §2

[26] = system: Staphylococcus aureus 695E; assay: as above; type: cell-based; settings: Staphylococcus aureus 695E
Description: as §1, §2

[27] = system: Staphylococcus epidermidis 291; assay: Measurement of Minimum Inhibitory Concentration (MIC), QRS; type: cell-based; settings: QRS, Staphylococcus epidermidis 291
Description: as §1, §2

[28] = system: Staphylococcus aureus 241; assay: as above; type: cell-based; settings: QRS, Staphylococcus aureus 241
Description: as §1, §2

[29] = system: Staphylococcus aureus 179; assay: as above; type: cell-based; settings: QRS, Staphylococcus aureus 179
Description: as §1, §2

[30] = system: Staphylococcus epidermidis 178; assay: as above; type: cell-based; settings: QRS, Staphylococcus epidermidis 178
Description: as §1, §2

[31] = system: Staphylococcus aureus 293; assay: as above; type: cell-based; settings: QRS, Staphylococcus aureus 293
Description: as §1, §2

Row | SMILES | Relative T1/2 [1] | T1/2 (time when the concentration of the medicament become the half) [1] | MIC [2] [µg/mL] | MIC [3] [µg/mL] | MIC [4] [µg/mL] | MIC [5] [µg/mL] | MIC [6] [µg/mL] | MIC [7] [µg/mL] | MIC [8] [µg/mL] | MIC [9] [µg/mL] | MIC [10] [µg/mL] | MIC [11] [µg/mL] | MIC [12] [µg/mL] | MIC [13] [µg/mL] | MIC [14] [µg/mL] | MIC [15] [µg/mL] | MIC [16] [µg/mL] | MIC [17] [µg/mL] | MIC [18] [µg/mL] | MIC [19] [µg/mL] | also measured
1 | COc1cccc(CN2CC(SC3=C(C(=O)[O-])N4C(=O)[C@H]([C@@H](C)O)[C@H]4[C@H]3C)C2)c1.[K+] [Exam. 15, Potassium(1R,5S,6S)-2-[1-(3-methoxybenzyl)-azetidine-3-yl-thio]-6-[(1R)-1-hydroxylethyl]-1-methylcarbapen-2-em-3-carboxylate] | 1.54 | 28.16 |  |  |  |  |  |  |  |  |  |  |  |  |  |  |  |  |  |  | 
2 | COc1ccccc1CN1CC(SC2=C(C(=O)[O-])N3C(=O)[C@H]([C@@H](C)O)[C@H]3[C@H]2C)C1.[K+] [Exam. 16, Potassium(1R,5S,6S)-2-[1-(2-methoxybenzyl)-azetidine-3-yl-thio]-6-[(1R)-1-hydroxylethyl]-1-methylcarbapen-2-em-3-carboxylate] |  | 200.91 | 0.098 | 0.195 | 0.195 | 0.391 | 0.098 | 0.013 | 0.002 | 0.049 | 0.025 | 0.002 | 0.098 | 0.781 | 0.391 | 1.563 | 0.098 | 0.049 | 0.025 | 0.025 | stability against hydrolysis by DHP-1 (in words) [1]: very stable; MIC [20]: 0.025 µg/mL; MIC [21]: 0.025 µg/mL; MIC [22]: 0.195 µg/mL; MIC [23]: 0.049 µg/mL; MIC [24]: 1.563 µg/mL; MIC [25]: 0.025 µg/mL; MIC [26]: 0.049 µg/mL; MIC [27]: 0.391 µg/mL; MIC [28]: 0.025 µg/mL; MIC [29]: 0.049 µg/mL; MIC [30]: 0.195 µg/mL; MIC [31]: 0.098 µg/mL
3 | COc1ccc(CN2CC(SC3=C(C(=O)[O-])N4C(=O)[C@H]([C@@H](C)O)[C@H]4[C@H]3C)C2)cc1OC.[K+] [Exam. 17, Potassium(1R,5S,6S)-2-[1-(3,4-dimethoxybenzyl)-azetidine-3-yl-thio]-6-[(1R)-1-hydroxylethyl]-1-methylcarbapen-2-em-3-carboxylate] |  | 27.45 | 0.098 | 0.391 | 0.391 | 0.391 | 0.391 | 0.013 | 0.002 | 0.049 | 0.025 | 0.002 | 0.098 | 0.781 | 0.781 | 1.563 | 0.098 | 0.098 | 0.098 | 0.098 | MIC [20]: 0.195 µg/mL; MIC [21]: 0.049 µg/mL; MIC [22]: 0.781 µg/mL; MIC [23]: 0.195 µg/mL; MIC [24]: 0.391 µg/mL; MIC [25]: 0.049 µg/mL; MIC [26]: 0.098 µg/mL; MIC [27]: 1.563 µg/mL; MIC [28]: 0.195 µg/mL; MIC [29]: 0.098 µg/mL; MIC [30]: 0.781 µg/mL; MIC [31]: 0.391 µg/mL
4 | C[C@@H](O)[C@H]1C(=O)N2C(C(=O)[O-])=C(SC3CN(Cc4ccc(Cl)cc4)C3)[C@H](C)[C@H]12.[K+] [Exam. 18, Potassium(1R,5S,6S)-2-[1-(4-chlorobenzyl)-azetidine-3-yl-thio]-6-[(1R)-1-hydroxylethyl]-1-methylcarbapen-2-em-3-carboxylate] | 0.84 | 15.36 |  |  |  |  |  |  |  |  |  |  |  |  |  |  |  |  |  |  | 
